# Data as given in US4245099A, “2-Acyl-6-aminomethylphenol derivatives” (Ono Pharmaceutical Co., Ltd., priority 1978, dated 1981).
# Where a name gives a salt, the structure may show the parent alone.
# Experiments:
# [1] = tested on: Carrageenan-Induced Edema in Rat Paws; test: Carrageenan-induced edema in rat paws (anti-inflammatory effect); type: in vivo; settings: 3 h, oral, carrageenan injected one hour after dosing, swelling measured at third hour of carrageenan injection, read-out: % Inhibition of Paw Edema
# Method: For example, in a laboratory experiment, one hour after oral administration with these compounds, the rats were subcutaneously injected with 0.1 ml of 1% carrageenan suspension on the plantar surface of the right hind paw. The swelling was measured at the third hour of carrageenan injection. Anti-inflammatory effect of the compounds was determined as percentage inhibition of the swelling, taking the swelling in the control groups as 100%.
# [2] = tested on: pain threshold of inflamed foot (beer yeast) in rats; test: Randall-Selitto method (analgesic effect in rat); type: in vivo; settings: male rats, oral, 2 hours after 20% beer yeast into subplantar area
# Method: Male rats were administered orally with 2-propionyl-4-tert-butyl-6-aminomethylphenol hydrochloride 2 hours after injection of 0.1 ml of 20% suspension beer yeast into subplantar area of one hind paw. Pain threshold determination was made on the normal and inflamed foot, using apparatus similar to that described by Randall-Selitto. Pain threshold change was expressed as percentage of control.
# [3] = tested on: ulcer in rats; test: Sign of ulcer upon oral administration in rats; type: in vivo, rat; settings: 200 mg/kg
# [4] = tested on: acetic acid stretching in mice; test: Acetic acid stretching method (analgesic effect in mice); type: in vivo; settings: male mice, oral, 0.6% acetic acid i.p. 30 minutes later, counted for 10 minutes from 5 minutes after injection
# Method: Male mice were given orally with these compounds and 30 minutes later injected intraperitoneally with 0.1 ml/10 g of 0.6% acetic acid. The number of stretching was countered for 10 minutes from 5 minutes after injection of acetic acid. The value was expressed in the percentage of control.
Structure (SMILES),inhibition in vivo at 30 mg/kg [1] [%],further results
CC(=O)c1cc(C(C)(C)C)cc(CN)c1O [2-Acetyl-4-tert-butyl-6-aminomethylphenol hydrochloride],46.7,–
CC(C)(C)c1cc(CN)c(O)c(C(=O)c2ccc(Br)cc2)c1 [2-(4-Bromobenzoyl)-4-tert-butyl-6-aminomethylphenol hydrochloride],35,–
"CC(=O)c1cc2c(c(CN)c1O)CCCC2C (centres unmarked) [1-Aminomethyl-3-acetyl-5-methyl-5,6,7,8-tetrahydro-2-naphthol hydrochloride]",66.3,–
CCC(=O)c1cc(C(C)(C)C)cc(CN)c1O.Cl [2-Propionyl-4-tert-butyl-6-aminomethylphenol hydrochloride],72.8,% Inhibition (Randall-Selitto pain threshold change) ([2]; 50 mg/kg): 70%; % Inhibition (Randall-Selitto pain threshold change) ([2]; 100 mg/kg): 113%; sign of ulcer [3]: did not show any sign of ulcer; % Inhibition (acetic acid stretching) ([4]; 10 mg/kg): 35.3%; % Inhibition (acetic acid stretching) ([4]; 20 mg/kg): 61.3%; % Inhibition (acetic acid stretching) ([4]; 50 mg/kg): 85.3%
CC(C)(C)c1cc(CN)c(O)c(C(=O)c2ccccc2)c1 [2-Benzoyl-4-tert-butyl-6-aminomethylphenol hydrochloride],47.6,–
"CC(=O)c1c(O)c(CN)cc2c1CCCC2 [1-Acetyl-3-aminomethyl-5,6,7,8-tetrahydro-2-naphthol hydrochloride]",55.3,–
CC(C)(C)c1cc(CN)c(O)c(C(=O)C2CCCCC2)c1 [2-Cyclohexylcarbonyl-4-tert-butyl-6-aminomethylphenol hydrochloride],27.1,–
CC(C)(C)c1cc(CN)c(O)c(C(=O)CCl)c1 [2-Chloroacetyl-4-tert-butyl-6-aminomethylphenol hydrochloride],59.2,–
CCCC(=O)c1cc(C(C)(C)C)cc(CN)c1O [2-Butyryl-4-tert-butyl-6-aminomethylphenol hydrochloride],34.1,–
CC(C)C(=O)c1cc(C(C)(C)C)cc(CN)c1O.Cl [2-Isobutyryl-4-tert-butyl-6-aminomethylphenol hydrochloride],55.5,% Inhibition (acetic acid stretching) ([4]; 50 mg/kg): 49.7%
"CCC(=O)c1c(O)c(CN)cc2c1CCCC2 [1-Propionyl-3-aminomethyl-5,6,7,8-tetrahydro-2-naphthol hydrochloride]",37.4,–
CSCCC(=O)c1cc(C(C)(C)C)cc(CN)c1O [2-(3-Methylthiopropionyl)-4-tert-butyl-6-aminomethylphenol hydrochloride],29.3,–
CC(C)(C)c1cc(CN)c(O)c(C(=O)Cc2ccccc2)c1 [2-Phenylacetyl-4-tert-butyl-6-aminomethylphenolhydrochloride],20.3,–
